This is an account of results in US10517871B2, “Survivin-targeting anti-tumor agents and uses thereof” (Indiana University Research and Technology Corporation, priority 2015, dated 2019).

For series [1], the target named is T1, survivin in PC3 cells (Homo sapiens, UniProt O15392).
T1 construct: endogenous in cells; host or cells: PC-3 cells
Nature of the series: Proteasome inhibitor reversal of compound-induced survivin degradation. The following applies: for effect of proteasome inhibitor on LQZ-7F-induced survivin degradation: co-treatment with LQZ-7F. Type of series: cell-based.

Series [2] addresses T2, ectopic Flag-tagged survivin in HEK293 cells (Homo sapiens, UniProt O15392).
T2 construct: expressed in transfected cells; host or cells: HEK293 cells, CMV promoter
Nature of the series: Western blot of ectopic tagged survivin in HEK293. Type of series: cell-based.

For a further series, the system named is DU145 cells. Nature of the series: MTT cell survival assay, DU145. It is filed as cell-based, human. The settings on record: compared with LQZ-7. How it is done: (§1) Human prostate cancer cell lines DU145 (top) and PC3 cells (bottom) were cultured in the presence of vehicle DMSO or 20 μM compounds off in-silico screening for 3 days followed by MTT assay. Cells survived in the presence of various compounds were normalized to that treated by DMSO vehicle. Arrows indicate compounds that inhibited >50% in cell survival. (*p<0.05; **p<0.01).
(§2) These assays were performed as previously described^49,50. Briefly, MTT assay were performed by seeding 2500 cells in 96-well plate and cultured 24 hours before addition of survivin inhibitors at different concentrations and continuous culture for 3 days. The cells were then subjected to MTT assay. For colony formation assay, 100 cells/well were seeded in 6-well plates and cultured for 24 hours before addition of survivin inhibitors or DMSO vehicle. The cells were continuously cultured in the presence of survivin inhibitors or DMSO for 10-14 days followed by staining with crystal violet and counting manually.

In series [3] the test system is PC-3 cells. Nature of the series: MTT cell survival assay, PC-3. It is filed as cell-based, human. The settings on record: PC3, MTT, compared with LQZ-7. How it is done:
as §1, §2

The test system of series [4] is survivin mRNA in DU145 cells. Nature of the series: Real-time RT-PCR of survivin mRNA. Type of series: cell-based, human. The following applies: DU145, 48 hrs.
The target of another series is T3, 14-3-3σ (Homo sapiens, UniProt P31947).
T3 sequence (P31947 1-248): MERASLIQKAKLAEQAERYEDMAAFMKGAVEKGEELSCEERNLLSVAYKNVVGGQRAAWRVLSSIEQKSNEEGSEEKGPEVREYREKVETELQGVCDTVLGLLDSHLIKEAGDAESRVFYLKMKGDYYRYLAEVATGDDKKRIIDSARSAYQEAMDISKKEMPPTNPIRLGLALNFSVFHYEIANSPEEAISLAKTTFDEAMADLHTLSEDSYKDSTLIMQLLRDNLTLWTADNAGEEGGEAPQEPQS
Nature of the series: Non-denaturing PAGE of 14-3-3σ dimerization. It is filed as biochemical. The following applies: 100 μM. How it is done:
After centrifugation at 11,000×g for 10 minutes, the supernatants were separated by electrophoresis on 15% Tris/glycine polyacrylamide gel followed by transfer to PVDF membrane for western blot analysis as previously described^48.

A further series relates to cancer cells. The settings on record: read-out: IC50 for proliferation of cancer cells; cited from earlier work.
Series [5] addresses survivin and its partner Ran protein (Homo sapiens, UniProt O15392). The settings on record: cited from earlier work.
A further series has as its target survivin (Homo sapiens, UniProt O15392). The following applies: cited from earlier work.
Another series concerns human cancers. The settings on record: several phase II trials; cited from earlier work.
A further series has as its system PC-3 xenograft tumors. Nature of the series: PC-3 xenograft mouse model efficacy. It is filed as in vivo, NOD/SCID mice. How it is done: We next determined if LQZ-7F is active in suppressing tumor growth in vivo using xenograft animal model. For this purpose, NOD/SCID mice were first implanted subcutaneously with PC-3 cells to establish xenograft tumors. PC-3 cell was chosen because it has highest IC50 (FIG. 6). When the xenograft tumor reached the size of ˜100 mm^3, the mice were randomized into two groups and treated with 25 mg/kg LQZ-7F or vehicle control via IP injection once every three days for total of 8 treatments. The growth of the xenograft tumors were measured using a caliper and body weight was monitored every three days for a total of 30 days. […] In fact, the body weight of the control group dropped slightly possibly due to disease burden of xenograft tumors. This symptom appears to be alleviated by LQZ-7F treatment, consistent with smaller tumor size in the treatment group.
For efficacy study, 3×10^6 PC-3 cells were injected subcutaneously in the flanks of 10 NOD/SCID mice. When the tumor volume reached about 100 mm^3, the mice were randomized into two different groups (5/group) with one group treated by vehicle control and the other by LQZ-7F at 25 mg/kg via IP injection once every three days for total of 8 treatments. Tumor volume and body weight were measured […]. On the 30th day after the initial treatment, mice were euthanized and the tumor tissues were harvested, weighed, and subjected to hematoxylin and eosin (H&E) staining as well as Western blot and immunohistochemistry analysis of survivin.

Series [6] deals with PC-3 cells. Nature of the series: Microtubule structure by α-tubulin immunostaining. It is filed as cell-based, human. The following applies: PC-3, 2 μM, 24 hours. How it is done: PC3 cells were treated without or with 2 μM LQZ-7F for 24 hours followed by immunostaining of α-tubulin and counter-stained with DAPI. The images were captured using confocal microscopy.
Series [7] addresses T4, survivin in DU145 and PC-3 cells (Homo sapiens, UniProt O15392).
T4 construct: endogenous in cells; host or cells: DU145 and PC-3 cells
Nature of the series: Survivin half-life determination (cycloheximide chase). The settings on record: PC-3, cycloheximide pre-treated, 5 μM LQZ-7F. Type of series: cell-based. How it is done:
PC-3 cells were pre-treated with cycloheximide (CHX) to inhibit protein synthesis followed by chasing for different times in the presence of LQZ-7F or DMSO control and Western blot analysis of remaining survivin.
The effect of survivin inhibitor on the half-life of survivin was determined as previously described^51. […] The cells were then harvested for Western blot analysis of survivin.

The target in series [8] is T1, survivin in PC3 cells. Nature of the series: Western blot of endogenous survivin, PC3. It is filed as cell-based. The settings on record: vs vehicle.
The next series deals with purified survivin (Homo sapiens, UniProt O15392). Nature of the series: Pull-down assay with sepharose-immobilized compound. It is filed as binding. The following applies: CNBr-activated sepharose, vs control beads. The text has this: LQZ-7F was immobilized onto CNBr-activated Sepharose and used to pull down recombinant survivin, followed by separation on SDS-PAGE and silver staining.
Sequence of purified survivin (O15392 whole entry): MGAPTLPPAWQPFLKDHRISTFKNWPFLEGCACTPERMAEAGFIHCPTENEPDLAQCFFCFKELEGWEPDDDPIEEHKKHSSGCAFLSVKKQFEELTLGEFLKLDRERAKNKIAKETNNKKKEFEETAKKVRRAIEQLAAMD
To investigate if LQZ-7F indeed binds to survivin, we took advantage of the primary amine group and immobilized LQZ-7F onto CNBr-activated sepharose for a pull-down assay using purified survivin.

The subject of series [9] is multiple human cancer cell lines (acute myeloid leukemia, breast, colon, lung, pancreas, prostate, ovary). Nature of the series: MTT assay, multiple human cancer cell lines. It is filed as cell-based. The following applies: range over all cell lines tested, read-out: IC50 for survival of cancer cell lines. How it is done: Toward this goal, we tested the effect of LQZ-7F on survival of multiple human cancer cell lines representing acute myeloid leukemia and cancers of breast, colon, lung, pancreas, prostate, and ovary using MTT assay.
as §2

A further series has as its system A549 cells. Nature of the series: Colony formation assay, A549. It is filed as cell-based, human. The following applies: control 45%. How it is done: as §2
The target of another series is T5, survivin in DU145 cells (Homo sapiens, UniProt O15392).
T5 construct: endogenous in cells; host or cells: DU145
T5 sequence (O15392 whole entry): as above
Nature of the series: Western blot of endogenous survivin, DU145. Type of series: cell-based. The settings on record: vs vehicle.

The next series deals with PC3 cells. Nature of the series: Colony formation assay, PC3. It is filed as cell-based, human. Details: unit of the concentration uncertain. The following applies: control approximately 62%. How it is done: as §2

Molecules are shown by their SMILES. Entries after “also recorded” stand apart in the source; their conditions may differ. Residues, ends and D or L forms follow the SMILES beside them. *: point of attachment. Cbz = O=C(OCc1ccccc1)*

T2 sequence (O15392 whole entry): as above
T1 sequence (O15392 whole entry): as above
T4 sequence (O15392 whole entry): as above
Sequence of survivin and its partner Ran protein (O15392 whole entry): as above
Sequence of survivin (O15392 whole entry): as above

`CC(C)C[C@H](NC(=O)[C@H](Cc1ccccc1)NC(=O)c1cnccn1)B(O)O` [bortezomib]: on survivin in PC3 cells [1], the “effect of proteasome inhibitor on LQZ-7F-induced survivin degradation” value is “able to rescue”.
For the molecule `Cc1cccc(Nc2nc3nonc3nc2N/N=C/c2cc3c(cc2[N+](=O)[O-])OCO3)c1C` [LQZ-7D], the “level of ectopic tagged survivin” value in series [2] was “no effect”. The IC50 in words result with DU145 cells and in the series with PC-3 cells [3] was “low IC50” throughout.
For `Cc1cccc(Nc2nc3nonc3nc2N/N=C/c2ccc(-c3cccc(C(=O)O)c3)o2)c1C` [LQZ-7], in [4], the “survivin mRNA level” value is recorded as “no effect”. Moreover, the “effect on 14-3-3σ dimerization” value on 14-3-3σ is on record as “no effect”.
For `CC(C)C[C@@H](C=O)NC(=O)[C@H](CC(C)C)NC(=O)[C@H](CC(C)C)NC(=O)OCc1ccccc1` [MG132] (Cbz-Leu-Leu-Leu-aldehyde), on survivin in PC3 cells [1] (co-treatment with LQZ-7, PC-3), the “effect of proteasome inhibitor on LQZ-7-induced survivin loss” value was “reversed”. The “effect of proteasome inhibitor on LQZ-7F-induced survivin degradation” value on survivin in PC3 cells [1] was “able to rescue”.
`N#Cc1c(-c2cc(OCc3ccccc3)cc(OCc3ccccc3)c2)cc(-c2cc(Cl)ccc2O)[nH]c1=O` [LLP3]: the IC50 in the series with cancer cells is 14 to 38 µM. For the same molecule, the “interaction between survivin and Ran protein” value in [5] is reported as “inhibited”. The “effect on survivin dimerization or its expression” value on survivin was “no effect”.
As to `COCCn1c2c([n+](Cc3cnccn3)c1C)C(=O)c1ccccc1C2=O` [YM155], in the series on human cancers, the clinical efficacy entry is on record as “limited or modest at best efficacy”.
Regarding `Cc1cccc(Nc2nc3nonc3nc2N/N=C/c2ccc(-c3ccc(Cl)c([N+](=O)[O-])c3)o2)c1C` [LQZ-7A], the “level of ectopic tagged survivin” value in series [2] was “no effect”. Moreover, the IC50 in words entry in the series with DU145 cells and in the series on PC-3 cells [3] was “low IC50” in each case.
On to `Nc1nonc1C(=O)N/N=C1\c2ccccc2-c2nc3nonc3nc21` [LQZ-7F], for which, in the series with PC-3 xenograft tumors (25 mg/kg IP once every three days, 8 treatments), the “body weight of mice” value was “remained constant”. Further, the “growth of xenograft tumors” value with PC-3 xenograft tumors (25 mg/kg IP once every three days, 8 treatments, vs vehicle) was “significantly inhibited”. Further, the “average weight of final tumors” value in the series with PC-3 xenograft tumors (25 mg/kg IP, day 30, vs control group) is on record as “significantly less”. In addition, in the series on PC-3 xenograft tumors (25 mg/kg IP, vs control-treated tumors), the “apoptotic cells in tumors” value is on record as “more apoptotic cells”. Also, the “survivin in xenograft tumors” value with PC-3 xenograft tumors (Western blot and IHC, vs control-treated group) is reported as “dramatically reduced”. Also, in the series on PC-3 cells [6], the microtubule structure result was “severely disrupted”. Moreover, in the series on PC-3 cells [6], the mitotic arrest entry was “many cells are arrested in mitotic phase”. Also, the “degradation of endogenous survivin” value in series [7] was “increased degradation”. In series [2], the “level of ectopic tagged survivin” value is “reduced survivin protein level; also recorded: completely eliminated survivin”. The “endogenous survivin protein level” value at survivin in PC3 cells [8] and on survivin in DU145 cells was “effectively suppressed” each time. Besides, the “pull-down of survivin by immobilized compound” value at purified survivin is given as “successfully pulled down”. For the same molecule, the IC50 in series [9] was 0.4 to 4.4 µM. In addition, the IC50 in words result in the series with DU145 cells and in the series on PC-3 cells [3] was “lower IC50 than the parent compound” throughout. Besides, the colony formation efficiency entry in the series on A549 cells (A549, 0.2) is “approximately 2.5%”; with A549 cells (A549, 0.5), about 0%; in the series on PC3 cells (PC3, 0.2 (unit uncertain)), “approximately 52%”; in the series on PC3 cells (PC3, 0.5 (unit uncertain)) it was about 12%; in the series on PC3 cells (PC3, 1 (unit uncertain)), about 8%.
